Test systems include 786-0; BT-549; HOP-92; K562; LOX IMVI; MCF7; MDA-MB-231; Malme-3M; NCI-H460; OVCAR-3; OVCAR-4; OVCAR-5; OVCAR-8; RPMI-8226; SF-295; SK-MEL-28; SNB-75; SW-620; TK-10.
Holding throughout (assay): DTP human tumour cell line panel, 48 h

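96-well plates; 48 h exposure; 5 concentrations. Endpoints by linear interpolation between flanking doses. Not reached: highest tested concentration assigned. GI50 = concentration required for 50% inhibition of growth.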 Activity calls are given as the source filed them. Cut-off read from the data, not from the text of the source: active = GI50 up to about 1.1 µM and inactive = higher.

The results in this text go back to ChEMBL document CHEMBL1201862, “PubChem BioAssay data set” (2004).

Consider `C=C1c2ccccc2C(=O)c2c1c1c(C(=O)OC)c(O)ccc1n2Cc1ccccc1`, for which the GI50 is 0.197 µM (active) with 786-0; 0.585 µM (active) with BT-549; < 0.01 µM (active) with HOP-92; 0.323 µM (active) in the assay on K562; 0.297 µM (active) with LOX IMVI; 0.249 µM (active) in the assay on MCF7. For the same compound, the GI50 in the assay on MDA-MB-231 is 0.355 µM (active); in the assay on Malme-3M, 0.445 µM (active); in the assay with NCI-H460, 0.908 µM (active); in the assay on OVCAR-3 it was 0.151 µM (active); in the assay with OVCAR-4, 0.558 µM (active); in the assay on OVCAR-5 it was 1.1 µM (active). The GI50 with OVCAR-8 is 0.245 µM (active); with RPMI-8226 it was 0.175 µM (active); in the assay with SF-295 it was 0.574 µM (active); with SK-MEL-28 it was 0.31 µM (active); with SNB-75, 0.264 µM (active); in the assay on SW-620, 0.342 µM (active). For the same compound, the GI50 in the assay with TK-10 was 0.459 µM (active).

On to `CC1OC(OC2C(O[C@@H]3C[C@@H]4CC[C@@H]5[C@H](CC[C@]6(C)C7C(C[C@@H]56)O[C@]5(CC[C@@H](C)CO5)[C@H]7C)[C@@]4(C)C[C@H]3O)OC(CO)C(O)C2O)C(O)C(O)C1O` (stereo partly specified), for which the GI50 in the assay on 786-0 was 1.82 µM (inactive); in the assay with BT-549 it was 1.93 µM (inactive); with HOP-92 it was 2.8 µM (inactive); in the assay with K562, 1.89 µM (inactive); with LOX IMVI it was 1.78 µM (inactive); in the assay on MCF7 it was 1.85 µM (inactive). For the same compound, the GI50 was 1.78 µM (inactive) in the assay with MDA-MB-231; 1.82 µM (inactive) in the assay with Malme-3M; 1.92 µM (inactive) in the assay on NCI-H460; 1.8 µM (inactive) in the assay with OVCAR-3; 2.23 µM (inactive) in the assay with OVCAR-4; 1.57 µM (inactive) with OVCAR-5. Moreover, the GI50 in the assay on OVCAR-8 was 1.86 µM (inactive); in the assay on RPMI-8226, 2.28 µM (inactive); in the assay with SF-295 it was 1.83 µM (inactive); in the assay with SK-MEL-28, 1.85 µM (inactive); in the assay on SNB-75, 2.24 µM (inactive); with SW-620, 1.93 µM (inactive). The GI50 in the assay with TK-10 is 1.76 µM (inactive).

With `COC(=O)CNC(=O)CCC(C)[C@H]1CCC2C3C(C[C@H](OC(C)=O)[C@@]21C)[C@@]1(C)CCC2(C[C@H]1C[C@H]3OC(C)=O)OOC1(CCCCC1)OO2` (stereo partly specified), the GI50 with 786-0 is 2.04 µM (inactive); in the assay with BT-549, 1.69 µM (inactive); in the assay on HOP-92 it was 1.08 µM (active); with K562 it was 3.14 µM (inactive); in the assay with LOX IMVI, 2.12 µM (inactive); in the assay with MCF7 it was 3.26 µM (inactive). Further, the GI50 in the assay on MDA-MB-231 is 1.64 µM (inactive); in the assay with Malme-3M, 3.37 µM (inactive); with NCI-H460, 1.76 µM (inactive); with OVCAR-3, 2.04 µM (inactive); in the assay on OVCAR-4 it was 1.83 µM (inactive); in the assay on OVCAR-5, 2.6 µM (inactive). Moreover, the GI50 was 1.82 µM (inactive) in the assay with OVCAR-8; 1.75 µM (inactive) in the assay with RPMI-8226; 6.08 µM (inactive) in the assay on SF-295; 9.29 µM (inactive) in the assay on SK-MEL-28; 2.23 µM (inactive) with SNB-75; 2.24 µM (inactive) with SW-620. Besides, the GI50 in the assay with TK-10 was 11.2 µM (inactive).

With `CCOC(=O)C1CCC(=O)N1C(=O)c1ccccc1Cl` (stereo unspecified), the GI50 in the assay with 786-0, with BT-549, in the assay with HOP-92, in the assay on K562, in the assay on LOX IMVI and in the assay on MCF7 was > 100 µM (inactive) in each case. The GI50 with MDA-MB-231, with Malme-3M, in the assay with NCI-H460, in the assay with OVCAR-3, in the assay with OVCAR-5 and in the assay on OVCAR-8 was > 100 µM (inactive) in each case. The GI50 in the assay with RPMI-8226, in the assay with SF-295, with SK-MEL-28, in the assay on SNB-75, with SW-620 and in the assay on TK-10 was > 100 µM (inactive) throughout.

Consider `CN(C)c1ccc(/C=C(/NC(=O)c2ccccc2)C(=O)Nc2ccccc2C(=O)O)cc1`, for which the GI50 in the assay with 786-0, in the assay on BT-549, in the assay with HOP-92, in the assay with K562, with LOX IMVI and with MCF7 was > 100 µM (inactive) in each case. Moreover, the GI50 in the assay on MDA-MB-231, with Malme-3M, in the assay with NCI-H460, in the assay on OVCAR-3, in the assay on OVCAR-5 and in the assay on OVCAR-8 was > 100 µM (inactive) throughout. The GI50 in the assay on RPMI-8226, with SF-295, with SK-MEL-28, in the assay with SNB-75 and in the assay with SW-620 was > 100 µM (inactive) each time.

For `C=CCn1c(N)c(C#N)c(C#N)c1-c1ccccc1`, the GI50 in the assay with 786-0, in the assay on BT-549, in the assay with HOP-92, in the assay with K562, in the assay with LOX IMVI and with MCF7 was > 100 µM (inactive) each time. In addition, the GI50 in the assay on MDA-MB-231, with Malme-3M, in the assay on OVCAR-3, in the assay with OVCAR-4, in the assay on OVCAR-5 and with OVCAR-8 was > 100 µM (inactive) in each case. Moreover, the GI50 with RPMI-8226 was > 100 µM (inactive); in the assay with SF-295, > 100 µM (inactive); in the assay on SNB-75, 26.2 µM (inactive); in the assay with SW-620 it was > 100 µM (inactive); in the assay with TK-10, > 100 µM (inactive).

For the compound `Cc1cc(O)c2c(c1)C(=O)C(c1c(C)cc3c(c1O)C(=O)C1OC1C3=O)=CC2=O` (stereo unspecified), the GI50 in the assay with 786-0 is 1.64 µM (inactive); in the assay with BT-549, 2.4 µM (inactive); in the assay with HOP-92, 0.839 µM (active); in the assay on K562, 0.339 µM (active); in the assay with LOX IMVI, 2.02 µM (inactive); with MCF7, 1.84 µM (inactive). The GI50 was 2.03 µM (inactive) in the assay with MDA-MB-231; 1.73 µM (inactive) with Malme-3M; 7.87 µM (inactive) in the assay with NCI-H460; 1.83 µM (inactive) with OVCAR-3; 3.33 µM (inactive) in the assay on OVCAR-4; 5.27 µM (inactive) with OVCAR-5. For the same compound, the GI50 in the assay on OVCAR-8 was 4.11 µM (inactive); with RPMI-8226, 0.357 µM (active); in the assay with SF-295 it was 16.5 µM (inactive); in the assay on SK-MEL-28, 1.94 µM (inactive); in the assay on SNB-75 it was 12.4 µM (inactive); in the assay with SW-620, 1.42 µM (inactive). The GI50 with TK-10 is 1.1 µM (active).

Consider `CN(Nc1cc(=O)[nH]c(=O)[nH]1)c1ccccc1`, for which the GI50 in the assay with 786-0, with BT-549, with HOP-92, in the assay on K562, in the assay with LOX IMVI and in the assay with MCF7 was > 100 µM (inactive) throughout. Moreover, the GI50 with MDA-MB-231, in the assay on Malme-3M, in the assay with NCI-H460, with OVCAR-3, with OVCAR-4 and in the assay with OVCAR-5 was > 100 µM (inactive) in each case. For the same compound, the GI50 with OVCAR-8 is > 100 µM (inactive); in the assay on RPMI-8226, > 100 µM (inactive); in the assay with SF-295, > 100 µM (inactive); in the assay on SK-MEL-28 it was > 100 µM (inactive); in the assay with SNB-75, 58.9 µM (inactive); with SW-620 it was > 100 µM (inactive). Moreover, the GI50 with TK-10 is > 100 µM (inactive).

As to `COc1ccc(NCc2c(O)ccc3ccccc23)cc1`, the GI50 is 16.4 µM (inactive) in the assay with 786-0; 18.6 µM (inactive) with BT-549; 16.1 µM (inactive) in the assay on HOP-92; 10.7 µM (inactive) in the assay on K562; 15.9 µM (inactive) in the assay with LOX IMVI; 28.8 µM (inactive) in the assay with MCF7. In addition, the GI50 is 30 µM (inactive) in the assay with MDA-MB-231; 20.7 µM (inactive) with Malme-3M; 49.9 µM (inactive) with NCI-H460; 27.2 µM (inactive) in the assay with OVCAR-3; 43.1 µM (inactive) with OVCAR-4; 11.3 µM (inactive) in the assay on OVCAR-5. For the same compound, the GI50 was 15.8 µM (inactive) in the assay on OVCAR-8; 24.7 µM (inactive) with RPMI-8226; 43 µM (inactive) with SF-295; 27.4 µM (inactive) in the assay with SK-MEL-28; > 100 µM (inactive) with SNB-75; 21.4 µM (inactive) in the assay with SW-620. Further, the GI50 with TK-10 was 17.9 µM (inactive).

As to `Cc1c(N=C(S)Nc2ccc(Cl)cc2)c(=O)n(-c2ccccc2)n1C`, the GI50 in the assay on 786-0, in the assay on BT-549, with HOP-92, in the assay with K562, with LOX IMVI and with MCF7 was > 100 µM (inactive) each time. Besides, the GI50 with MDA-MB-231, with Malme-3M, in the assay with NCI-H460, in the assay with OVCAR-3, in the assay on OVCAR-5 and in the assay on RPMI-8226 was > 100 µM (inactive) throughout. The GI50 in the assay with SF-295, in the assay on SK-MEL-28, with SNB-75, in the assay on SW-620 and in the assay on TK-10 was > 100 µM (inactive) each time.

Take `CCOC(=O)/C(=C\c1ccc(C#N)cc1)C(C)=O`: the GI50 in the assay on 786-0 was 18.4 µM (inactive); with BT-549 it was 13.5 µM (inactive); in the assay with HOP-92 it was 17.4 µM (inactive); in the assay with K562 it was 30.7 µM (inactive); in the assay on LOX IMVI, 19.9 µM (inactive); with MCF7, 19.9 µM (inactive). The GI50 with MDA-MB-231 is 15.6 µM (inactive); in the assay with Malme-3M it was 15.2 µM (inactive); in the assay on NCI-H460, 28.8 µM (inactive); in the assay on OVCAR-3 it was 36.6 µM (inactive); with OVCAR-4, 23.3 µM (inactive); in the assay on OVCAR-5, 30.8 µM (inactive). The GI50 with OVCAR-8 was 36.6 µM (inactive); in the assay on RPMI-8226, 22 µM (inactive); in the assay with SF-295 it was 34.5 µM (inactive); in the assay with SNB-75, 14.6 µM (inactive); in the assay with SW-620 it was 21.2 µM (inactive); in the assay with TK-10 it was 24 µM (inactive).
